The values that follow are results of earlier work, collected in US9418186B2, “Assessment of solute partitioning in crude oils” (EXXONMOBIL RESEARCH AND ENGINEERING COMPANY, priority 2012, dated 2016).

The conditions of data set [1]: North Sea crude oil / water.
Assay in data set [2]: not given
This is another data set of the same source.

For data set [3] the following is noted: chloroform / water.
For data set [4] the following is noted: Miller (North Sea) crude oil / water.

“And” between values parts separate entries of the source, which are not always exact repeats. Equal values may be shown once. Read-outs that look alike come from different tables or passages of the source.

For the compound `S` [H2S], the “literature value for the partition coefficient in octanol-water” value was 27.5 and the “log K in octanol-water (literature)” value is recorded as 1.44. Besides, in data set [1], the experimental partition coefficient is 4.09 and the “experimental value for the log of the partition coefficient” value (shortened to “experimental value for the log”) is 0.612.

Turning to `O=C1CCCCCN1` [caprolactam], the solubility in water in data set [2] is 40353 gmol/m^3. Besides, in data set [3], the experimental partition coefficient is 0.74 and the “experimental value for the log” value is −0.131.

Regarding `Oc1ccccc1` [phenol], the “literature value for the partition coefficient in octanol-water” value is 28.8 and the “log K in octanol-water (literature)” value is on record as 1.45. For the same compound, in data set [3], the experimental partition coefficient was 0.74 and the “experimental value for the log” value is reported as −0.13. Further, in data set [4], the experimental partition coefficient is 1.72; the “experimental value for the log” value is 0.238 and 0.24.
